The values below come from patent US8609860B2, “Acid-labile trigger units” (KTB Tumorforschungsgesellschaft mbH, priority 2009, dated 2013).

Series [1] in a line: Determination of half-lives for the imine hydrolysis in model compounds (AMC release, fluorescence).
Method: (§1) Half-lives of imine hydrolysis are determined by measuring the decrease of the concentration of the imine and/or the increase of the concentration of the hydrolysis products e.g. by fluorescence methods, HPLC, infrared spectroscopy and/or NMR spectroscopy.
(§2) For example, in the case of compounds comprising above groups Ar and the fluorescent dye AMC (cf. FIG. 3), half-lives of imine hydrolysis are determined by measuring the increase in fluorescence that corresponds to the release of AMC from the model compounds.
(§3) • 200 μL solution per well; • Wavelength: λex=390 nm, λem=460 nm; • Temperature: 37° C.
For series [2] the following is noted: buffer.
Method: as §1, §2, §3

A word on the half-life: it is how long it takes for the measured level to halve. Low readings indicate rapid decline, high ones slow decline. For the compound `Cc1cc(=O)oc2cc(NC(=O)OCc3ccc(N=Cc4ccccc4)cc3)ccc12` [Compound 4, 4-(Benzylideneamino)benzyl 4-methylcoumarin-7-ylcarbamate], the half-life in series [1] (acetate buffer, pH 5) was 0.567 h; in series [1] (phosphate buffer, pH 7.4), 8 h.
On to “4-(Perfluorobenzylideneamino)benzyl 4-methylcoumarin-7-ylcarbamate [Compound 6]”, for which, in series [2] (pH 5), the “t1/2 pH 5.0 (half-life of imine hydrolysis)” value is recorded as 173 min. Moreover, the “t1/2 pH 7.4 (half-life of imine hydrolysis)” value in series [2] (pH 7.4) stood at 365 h.
Take `Cc1cc(=O)oc2cc(NC(=O)OCc3ccc(N=Cc4c(F)c(F)cc(F)c4F)cc3)ccc12` [Compound 5, 4-(2,3,5,6-Tetrafluorobenzylideneamino)benzyl 4-methylcoumarin-7-ylcarbamate]: the half-life was 0.567 h in series [1] (acetate buffer, pH 5) and 89 h in series [1] (phosphate buffer, pH 7.4).
